How the values were obtained:
h P2X2/3 = molecular target: T1, h P2X2/3 (Homo sapiens, UniProt P56373+Q9UBL9); test: In vitro electrophysiology assay for P2X2/3 (same protocol, 10 μM ATP as agonist); assay type: cell-based; conditions: Table 7, range of activity
T1 sequence (P56373 1-397): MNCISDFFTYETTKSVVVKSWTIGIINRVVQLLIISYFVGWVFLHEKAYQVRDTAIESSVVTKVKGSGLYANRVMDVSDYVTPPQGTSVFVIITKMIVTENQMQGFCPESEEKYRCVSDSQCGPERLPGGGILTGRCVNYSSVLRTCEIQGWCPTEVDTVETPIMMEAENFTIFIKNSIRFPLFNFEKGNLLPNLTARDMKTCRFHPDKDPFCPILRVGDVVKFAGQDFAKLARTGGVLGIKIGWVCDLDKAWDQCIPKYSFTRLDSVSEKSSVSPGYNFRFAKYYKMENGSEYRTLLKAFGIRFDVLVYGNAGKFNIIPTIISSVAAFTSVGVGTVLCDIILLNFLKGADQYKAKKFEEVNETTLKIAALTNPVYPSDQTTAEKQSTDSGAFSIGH
T1 sequence (Q9UBL9 1-471): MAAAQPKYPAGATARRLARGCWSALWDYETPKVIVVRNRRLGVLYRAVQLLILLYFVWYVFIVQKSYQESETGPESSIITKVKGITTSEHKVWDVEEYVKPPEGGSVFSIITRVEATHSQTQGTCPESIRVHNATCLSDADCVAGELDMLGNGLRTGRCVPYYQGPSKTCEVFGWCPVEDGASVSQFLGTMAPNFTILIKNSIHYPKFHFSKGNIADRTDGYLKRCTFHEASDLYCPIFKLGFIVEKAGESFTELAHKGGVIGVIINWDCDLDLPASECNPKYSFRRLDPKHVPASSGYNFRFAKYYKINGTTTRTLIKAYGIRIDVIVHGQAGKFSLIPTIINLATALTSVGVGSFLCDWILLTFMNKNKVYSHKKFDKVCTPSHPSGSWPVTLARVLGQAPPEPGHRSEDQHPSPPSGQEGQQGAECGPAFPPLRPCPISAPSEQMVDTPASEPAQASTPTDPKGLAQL
Description: Cells expressing P2X3 receptors were grown according to standard practice and maintained at 37° C. in a 5% humidified CO2 atmosphere. The cells were seeded into T175 flask 2 days prior to the day of the assay and dissociated from the flasks using TrypLE when grown to confluence of 80-90%. The dissociated cells were resuspended in serum free media at a cell density of 3×10^6 cells/ml and loaded onto the Sophion Qube automated patch-clamp system. The extracellular assay buffer contained 145 mM NaCl, 4 mM KCl, 2 mM CaCl2), 1 mM MgCl2, 10 mM HEPES, and 10 mM glucose at pH 7.4. The intracellular assay solution contained 140 mM CsF, 10 mM NaCl, 10 mM EGTA, 10 mM HEPES at pH 7.2. Agonist stock solutions were prepared in H2O and diluted in bath solution prior to use. All antagonists were prepared as 10 mM stock solutions in DMSO and diluted in bath solution prior to use. All experiments were performed under the whole-cell patch clamp configuration at room temperature with 384 individual cells being voltage clamped at −60 mV simultaneously on the Sophion Qube instrument. Two baseline responses were established with the application of α,β-MeATP (800 nM), with the subsequent agonist applications being washed out using extracellular assay buffer containing 0.5 U/ml apyrase. Following the second agonist application, antagonist was incubated in the absence of α,β-MeATP for 10 minutes. After antagonist preincubation, 800 nM α,β-MeATP and antagonist were co-administered to determine the inhibitory effect of the antagonist. One concentration of an antagonist was assessed against a single cell, with different concentrations of the antagonist applied to other cells on the 384 recording substrate. The control P2X3 current amplitude was taken from the peak current amplitude from the second agonist response prior to preincubation with antagonist. The peak P2X3 current amplitude in the presence of antagonist was used to calculate the inhibitory effect at each concentration of the antagonist according to the following equation: […]
Concentration-response curves were constructed from ten different concentrations with each concentration of antagonist tested on at least two individual cells. The concentration of the antagonist to inhibit P2X3 current by 50% (IC50) was determined by fitting the data with the following equation: […]
Where ‘a’ is minimum response, ‘b’ is maximum response, ‘c’ is IC50 and ‘d’ is Hill slope.
Representative compound of the present invention have been also tested for P2X2/3 receptor.
The same assay protocol was used for the P2X2/3 assay as the P2X3 assay with two modifications: 1) 10 μM ATP was used as the agonist; and 2) the mean current amplitude was measured seven seconds after the application of agonist.

h P2X3 = molecular target: T2, h P2X3 (Homo sapiens, UniProt P56373); test: In vitro electrophysiology assay for P2X3 (automated whole-cell patch clamp, Sophion Qube); assay type: cell-based; conditions: range of activity
T2 sequence (P56373 1-397): T1 sequence (P56373 1-397)
Method in brief: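 Whole-cell automated patch clamp at room temperature, cells held at −60 mV; after two 800 nM α,β-MeATP baseline responses, antagonist preincubated 10 min then co-applied with 800 nM α,β-MeATP. Inhibition of peak current vs second agonist response; IC50 from 10-concentration curves, one concentration per cell.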

[1] = Table 6, inhibition of P2X3 current, agonist α,β-MeATP (800 nM)

Row | Compound | IC50 (h P2X2/3) | IC50 (h P2X3; [1]) | IC50 (h P2X3; Table 7)
1 | Cc1ccc(CNc2ncnc3c(OC4CCOCC4)cc(-c4ccc(F)cn4)cc23)nn1 [Example 30, 6-(5-fluoro-2-pyridyl)-N-[(6-methylpyridazin-3-yl)methyl]-8-tetrahydropyran-4-yloxy-quinazolin-4-amine] | 3160 to 31600 nM | 316 to 3160 nM | 316 to 3160 nM
2 | COc1cc(-c2ncc(F)cn2)cc2c(NC(C)c3noc(C)n3)ncnc12 (stereo not drawn) [Example 108, 6-(5-fluoropyrimidin-2-yl)-8-methoxy-N-(1-(5-methyl-1,2,4-oxadiazol-3-yl)ethyl)quinazolin-4-amine] | 3160 to 31600 nM | 316 to 3160 nM | 316 to 3160 nM
3 | COc1cc(-c2ncc(F)cn2)cc2c(NC(C)c3nnc(C)s3)ncnc12 (stereo not drawn) [Example 109, 6-(5-fluoropyrimidin-2-yl)-8-methoxy-N-(1-(5-methyl-1,3,4-thiadiazol-2-yl)ethyl)quinazolin-4-amine] | 3160 to 31600 nM | 316 to 3160 nM | 316 to 3160 nM
4 | COc1cc(-c2ccc(C)cn2)cc2c(NCc3noc(C)n3)ncnc12 [Example 136, 8-methoxy-N-((5-methyl-1,2,4-oxadiazol-3-yl)methyl)-6-(5-methylpyridin-2-yl)quinazolin-4-amine] | 3160 to 31600 nM | 316 to 3160 nM | 316 to 3160 nM
5 | COc1cc(-c2ccc(C)cn2)cc2c(NCc3cc(C)no3)ncnc12 [Example 137, 8-methoxy-N-((3-methylisoxazol-5-yl)methyl)-6-(5-methylpyridin-2-yl)quinazolin-4-amine] | 3160 to 31600 nM | < 316 nM | < 316 nM
6 | COc1cc(-c2ccc(C)cn2)cc2c(NCc3nc(C)no3)ncnc12 [Example 142, 8-methoxy-N-[(3-methyl-1,2,4-oxadiazol-5-yl)methyl]-6-(5-methyl-2-pyridyl)quinazolin-4-amine] | 3160 to 31600 nM | < 316 nM | < 316 nM
7 | COc1cc(-c2ccc(C)cn2)cc2c(NCc3nnc(C)o3)ncnc12 [Example 143, 8-methoxy-N-[(5-methyl-1,3,4-oxadiazol-2-yl)methyl]-6-(5-methyl-2-pyridyl)quinazolin-4-amine] | 3160 to 31600 nM | < 316 nM | < 316 nM
8 | COc1cc(-c2ncc(C)cn2)cc2c(NCc3nc(C(F)(F)F)no3)ncnc12 [Example 144, 8-methoxy-6-(5-methylpyrimidin-2-yl)-N-[[3-(trifluoromethyl)-1,2,4-oxadiazol-5-yl]methyl]quinazolin-4-amine] | 3160 to 31600 nM | < 316 nM | < 316 nM
9 | COc1cc(-c2ncc(C)cn2)cc2c(NCc3cnc(C(F)(F)F)nc3)ncnc12 [Example 145, 8-methoxy-6-(5-methylpyrimidin-2-yl)-N-[[2-(trifluoromethyl)pyrimidin-5-yl]methyl]quinazolin-4-amine] | 316 to 3160 nM | < 316 nM | < 316 nM
10 | COc1cc(-c2ccc(F)cn2)cc2c(NCc3cnc(C(F)(F)F)nc3)ncnc12 [Example 146, 6-(5-fluoropyridin-2-yl)-8-methoxy-N-((2-(trifluoromethyl)pyrimidin-5-yl)methyl)quinazolin-4-amine] | 3160 to 31600 nM | < 316 nM | < 316 nM
11 | COc1cc(-c2ccc(F)cn2)cc2c(NCc3ccc(C)nc3)ncnc12 [Example 149, 6-(5-fluoropyridin-2-yl)-8-methoxy-N-((6-methylpyridin-3-yl)methyl)quinazolin-4-amine] | 3160 to 31600 nM | < 316 nM | < 316 nM
12 | COc1cc(-c2ccc(F)cn2)cc2c(NCc3ccc(C(F)(F)F)nc3)ncnc12 [Example 150, 6-(5-fluoropyridin-2-yl)-8-methoxy-N-((6-(trifluoromethyl)pyridin-3-yl)methyl)quinazolin-4-amineamine] | 3160 to 31600 nM | < 316 nM | < 316 nM
13 | COc1cc(-c2ncc(C)cn2)cc2c(NCc3ccn(C)c(=O)c3)ncnc12 [Example 151, 4-(((8-methoxy-6-(5-methylpyrimidin-2-yl)quinazolin-4-yl)amino)methyl)-1-methylpyridin-2(1H)-one] | 316 to 3160 nM | < 316 nM | < 316 nM
14 | COc1cc(-c2ncc(C)cn2)cc2c(NCc3cccc(=O)[nH]3)ncnc12 [Example 152, 6-(((8-methoxy-6-(5-methylpyrimidin-2-yl)quinazolin-4-yl)amino)methyl)pyridin-2(1H)-one] | 3160 to 31600 nM | < 316 nM | < 316 nM
15 | COc1cc(-c2ncc(C)cn2)cc2c(NCc3nnc(C)s3)ncnc12 [Example 153, 8-methoxy-N-((5-methyl-1,3,4-thiadiazol-2-yl)methyl)-6-(5-methylpyrimidin-2-yl)quinazolin-4-amine] | 3160 to 31600 nM | < 316 nM | < 316 nM

Further lines, results first:

Row | IC50 (h P2X2/3) | IC50 (h P2X3; [1]) | IC50 (h P2X3; Table 7) | Compound
16 | 316 to 3160 nM | < 316 nM | < 316 nM | COc1cc(-n2cc(C)cn2)cc2c(N[C@H](C)c3ccc(C)nn3)ncnc12 [Example 99, (R)-8-methoxy-6-(4-methyl-1H-pyrazol-1-yl)-N-(1-(6-methylpyridazin-3-yl)ethyl)quinazolin-4-amine]
17 | 316 to 3160 nM | < 316 nM | < 316 nM | COc1cc(-c2ncc(C)s2)cc2c(NC(C)c3noc(C)n3)ncnc12 (stereo not drawn) [Example 107, 8-methoxy-N-(1-(5-methyl-1,2,4-oxadiazol-3-yl)ethyl)-6-(5-methylthiazol-2-yl)quinazolin-4-amine]
18 | 316 to 3160 nM | < 316 nM | < 316 nM | COc1cc(-c2ncc(C)s2)cc2c(NCc3cc(C)no3)ncnc12 [Example 111, 8-methoxy-N-[(3-methylisoxazol-5-yl)methyl]-6-(5-methylthiazol-2-yl)quinazolin-4-amine]
19 | 316 to 3160 nM | < 316 nM | < 316 nM | COc1cc(-c2ncc(C)s2)cc2c(NCc3nc(C(F)(F)F)no3)ncnc12 [Example 112, 8-methoxy-6-(5-methylthiazol-2-yl)-N-[[3-(trifluoromethyl)-1,2,4-oxadiazol-5-yl]methyl]quinazolin-4-amine]
20 | 316 to 3160 nM | < 316 nM | < 316 nM | COc1cc(-c2ncc(C)s2)cc2c(NCc3nc(C)no3)ncnc12 [Example 113, 8-methoxy-N-[(3-methyl-1,2,4-oxadiazol-5-yl)methyl]-6-(5-methylthiazol-2-yl)quinazolin-4-amine]
21 | 316 to 3160 nM | < 316 nM | < 316 nM | COc1cc(-c2ncc(C)s2)cc2c(NCc3ccc(C(F)(F)F)cn3)ncnc12 [Example 116, 8-methoxy-6-(5-methylthiazol-2-yl)-N-((5-(trifluoromethyl)pyridin-2-yl)methyl)quinazolin-4-amine]
22 | 316 to 3160 nM | < 316 nM | < 316 nM | COc1cc(-c2ncc(C)s2)cc2c(NCc3ccc(Cl)cn3)ncnc12 [Example 117, N-((5-chloropyridin-2-yl)methyl)-8-methoxy-6-(5-methylthiazol-2-yl)quinazolin-4-amine]

Reference: patent US12466820B2, “Amino quinazoline derivatives as P2X3 inhibitors” (CHIESI FARMACEUTICI S.p.A., priority 2019, dated 2025)
